Earlier results, collected in article PMC7395068, “The evolution of strategies to minimise the risk of human drug-induced liver injury (DILI) in drug discovery and development” (Archives of Toxicology, 2020).
Read-outs that look alike come from different tables or passages of the source.

Key:
human hepatocytes = settings: In vitro Assay; ref Xu 2008; cited from earlier work
[1] = test system: isolated mouse liver mitochondria; settings: In vitro Assay; ref Porceddu 2012; cited from earlier work
[2] = cited from earlier work
HepG2 cells [3] = settings: cited from earlier work
[4] = ref Chen 2016; cited from earlier work
HepG2 cells [5] = settings: In vitro Assay; ref Persson 2013; cited from earlier work
[6] = test system: primary human hepatocytes, NIH3T3 fibroblasts, BSEP, CYP3A4; settings: In vitro Assay; ref Schadt 2015; cited from earlier work
[7] = test system: THLE or HepG2 cells, isolated mitochondria, BSEP; settings: cited from earlier work
[8] = In vitro Assay, ref O'Brien 2006

Structure (SMILES)	In vivo DILI ([2]; ref O'Brien 2006)	Structural based (HCI) (HepG2 cells [3]; [8])	DILI +VE (5-8), DILI -VE (-4) [4]	DILI severity category [4]	other results
CCCCN1CCCCC1C(=O)Nc1c(C)cccc1C (centres unmarked) [bupivacaine]	-VE	+VE (lowest HCI endpoint IC50 (or in the absence of dose–response < 100 µM) < 30 × total human plasma exposure levels (Cmax.tot))	–	–	Structural based (HCI) (human hepatocytes): -VE; in vitro data EC2<=1x Cmax [1]: -VE; in vitro data EC20<=2uM [1]: -VE; In vivo DILI ([2]; ref Porceddu 2012): +VE; In vivo DILI ([2]; ref Xu 2008): -VE
CC(C)(O/N=C(\C(=O)N[C@@H]1C(=O)N2C(C(=O)[O-])=C(C[n+]3ccccc3)CS[C@H]12)c1csc(N)n1)C(=O)O [ceftazidime]	+VE	+VE (lowest HCI endpoint IC50 (or in the absence of dose–response < 100 µM) < 30 × total human plasma exposure levels (Cmax.tot))	+VE	vLess-DILI-Concern	In vivo DILI ([2]; […]): +VE
C[N+](C)(C)CCOP(=O)(O)OP(=O)([O-])OC[C@H]1O[C@@H](n2ccc(N)nc2=O)[C@H](O)[C@@H]1O [citicoline]	-VE	+VE (lowest HCI endpoint IC50 (or in the absence of dose–response < 100 µM) < 30 × total human plasma exposure levels (Cmax.tot))	–	–	Cluser analysis (HepG2 cells [5]): -VE; Structural based (HCI) (HepG2 cells [5]): -VE; In vivo DILI ([2]; ref Persson 2013): -VE
COc1cccc2c1C(=O)c1c(O)c3c(c(O)c1C2=O)C[C@@](O)(C(=O)CO)C[C@@H]3O[C@H]1C[C@H](N)[C@H](O)[C@H](C)O1 [doxorubicin]	+VE	+VE	+VE	vLess-DILI-Concern	Cellular toxicity (3T3 cells) [6]: +VE; GSH adduct HML [6]: -VE; Hepatocyte cellular toxicity [6]: -VE; MitoTox 3T3 [6]: -VE; TDI CYP3A4 [6]: -VE; hBSEP inhibition [6]: -VE; in vitro data EC2<=1x Cmax [1]: +VE; in vitro data EC20<=2uM [1]: +VE; In vivo DILI ([2]; […]): +VE; In vivo DILI ([2]; ref Porceddu 2012): +VE; In vivo DILI ([2]; ref Schadt 2015): -VE
CCOC(=O)[C@H](CCc1ccccc1)N[C@@H](C)C(=O)N1CCC[C@H]1C(=O)O [enalapril]	+VE	+VE (lowest HCI endpoint IC50 (or in the absence of dose–response < 100 µM) < 30 × total human plasma exposure levels (Cmax.tot))	+VE	vLess-DILI-Concern	–
O=C(O)P(=O)(O)O [foscarnet]	-VE	+VE (lowest HCI endpoint IC50 (or in the absence of dose–response < 100 µM) < 30 × total human plasma exposure levels (Cmax.tot))	-VE	Ambiguous DILI-concern	–
NNc1nncc2ccccc12 [hydralazine]	+VE	+VE (lowest HCI endpoint IC50 (or in the absence of dose–response < 100 µM) < 30 × total human plasma exposure levels (Cmax.tot))	+VE	vLess-DILI-Concern	In vivo DILI ([2]; […]): +VE
NC[C@H]1O[C@H](O[C@H]2[C@H](O)[C@@H](O[C@H]3O[C@H](CO)[C@@H](O)[C@H](N)[C@H]3O)[C@H](N)C[C@@H]2N)[C@H](O)[C@@H](O)[C@@H]1O [kanamycin]	–	–	–	–	Partition Hybrid HRM Score [7]: -VE; Ro2 Hybrid HRM Score [7]: -VE; Structural based (HCI) (HepG2 cells [3]): +VE
CC12CC3CC(C)(C1)CC(N)(C3)C2 [memantine]	-VE	-VE	+VE	vLess-DILI-Concern	Structural based (HCI) (human hepatocytes): -VE; In vivo DILI ([2]; ref Xu 2008): -VE
C=C1c2cccc(O)c2C(=O)C2=C(O)[C@]3(O)C(=O)C(C(N)=O)=C(O)[C@@H](N(C)C)[C@@H]3[C@@H](O)[C@H]12 [methacycline]	+VE	+VE (lowest HCI endpoint IC50 (or in the absence of dose–response < 100 µM) < 30 × total human plasma exposure levels (Cmax.tot))	–	–	Structural based (HCI) (human hepatocytes): +VE; In vivo DILI ([2]; ref Xu 2008): +VE
CC[C@H](C)C(=O)O[C@H]1CCC=C2C=C[C@H](C)[C@H](CC[C@@H]3C[C@@H](O)CC(=O)O3)[C@H]21 [mevastatin]	–	–	–	–	In vivo DILI ([2]; assignment in O'Brien 2006, ref O'Brien 2006): -VE; Structural based (HCI), In vitro Assay (HepG2 cells [3]; HepG2 HCI, ref O'Brien 2006): -VE
O=C(O)c1cccnc1 [niacin]	–	-VE	–	–	Partition Hybrid HRM Score ([7]; In vitro Assay, ref Aleo 2019): +VE; Ro2 Hybrid HRM Score ([7]; In vitro Assay, ref Aleo 2019): -VE
COC(=O)Nc1nc2ccc(C(=O)c3cccs3)cc2[nH]1 [nocodazole]	-VE	+VE (lowest HCI endpoint IC50 (or in the absence of dose–response < 100 µM) < 30 × total human plasma exposure levels (Cmax.tot))	–	–	Structural based (HCI) (human hepatocytes): -VE; In vivo DILI ([2]; ref Xu 2008): -VE
CCn1cc(C(=O)O)c(=O)c2cc(F)c(N3CCNCC3)cc21 [norfloxacin]	+VE	+VE (lowest HCI endpoint IC50 (or in the absence of dose–response < 100 µM) < 30 × total human plasma exposure levels (Cmax.tot))	+VE	vLess-DILI-Concern	–
